Results from patent US20100267561A1, “HERBICIDAL PYRIDAZINONE DERIVATIVES” (priority 2007, published 2010).

Key:
Type in all cases: in vivo
[1] = system: catchweed bedstraw (Galium aparine); experiment: Test B pre-/postemergence plant response; conditions: Preemergence; for Galium plant response rating: scale 0 to 100
Summary of the method: (§1)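 Seeds were sown and sprayed preemergence, while plants at 2 to 18 cm (1- to 4-leaf stage) got postemergence sprays. Compounds were formulated in a non-phytotoxic solvent mixture with surfactant. After 13 to 15 days in a greenhouse, injury was rated visually against untreated controls, 0 (no effect) to 100 (complete control).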

[2] = system: common (oilseed) sunflower (Helianthus annuus); experiment: Test B pre-/postemergence plant response; conditions: Preemergence; for Sunflower plant response rating: scale 0 to 100
Summary of the method: as §1

[3] = system: common ragweed (Ambrosia elation); experiment: Test B pre-/postemergence plant response
Summary of the method: as §1

wild oat (Avena fatua) = experiment: Test B pre-/postemergence plant response
Summary of the method: as §1

[4] = system: giant foxtail (Setaria faberii); experiment: Test B pre-/postemergence plant response
Summary of the method: as §1

[5] = system: johnsongrass (Sorghum halepense); experiment: Test B pre-/postemergence plant response
Summary of the method: as §1

[6] = system: goosegrass (Eleusine indica); experiment: Test B pre-/postemergence plant response
Summary of the method: as §1

[7] = system: lambsquarters (Chenopodium album); experiment: Test B pre-/postemergence plant response
Summary of the method: as §1

[8] = system: wheat (Triticum aestivum); experiment: Test B pre-/postemergence plant response
Summary of the method: as §1

[9] = system: yellow nutsedge (Cyperus esculentus); experiment: Test B pre-/postemergence plant response
Summary of the method: as §1

[10] = system: cocklebur (Xanthium strumarium); experiment: Test B pre-/postemergence plant response; conditions: for Cocklebur plant response rating: 8 g ai/ha
Summary of the method: as §1

[11] = system: large crabgrass (Digitaria sanguinalis); experiment: Test B pre-/postemergence plant response
Summary of the method: as §1

[12] = system: blackgrass (Alopecurus myosuroides); experiment: Test B pre-/postemergence plant response; conditions: for Blackgrass plant response rating: 8 g ai/ha
Summary of the method: as §1

[13] = system: windgrass (Apera spica-venti); experiment: Test B postemergence plant response; conditions: for Plant response rating, Windgrass: Postemergence
Summary of the method: (§2)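 Test compounds were applied postemergence to plants 2 to 18 cm tall (1- to 4-leaf stage). After 13 to 15 days in a greenhouse, each species was visually compared with untreated controls and rated 0 (no effect) to 100 (complete control).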

[14] = system: winter barley (Hordeum vulgare); experiment: Test B postemergence plant response; conditions: for Plant response rating, Barley: Postemergence, scale 0 to 100, 0 no effect, 100 complete control
Summary of the method: as §2

[15] = 31 g ai/ha, scale 0 to 100 (0 no effect, 100 complete control)
[16] = 62 g ai/ha, 0 to 100 scale, 0 no effect, 100 complete control
[17] = 8 g ai/ha, postemergence, 0-100 scale
[18] = Postemergence, 16 g ai/ha, scale 0 to 100
[19] = Postemergence, 31 g ai/ha, scale 0 to 100
[20] = Postemergence, 62 g ai/ha, scale 0 to 100, 0 no effect, 100 complete control
[21] = Preemergence, 31 g ai/ha, scale 0 to 100 (0 no effect, 100 complete control)
[22] = Preemergence, 62 g ai/ha, 0 to 100 scale, 0 no effect, 100 complete control
[23] = Preemergence, 8 g ai/ha, scale 0 to 100
[24] = Preemergence, 16 g ai/ha, scale 0 to 100
[25] = Preemergence, 16 g ai/ha, scale 0 to 100 (0 no effect, 100 complete control)

Cc1cc(-c2ccc(Cl)cc2)nn1-c1c(OC(=O)OCC(C)C)cnn(C)c1=O [Compound 57]
Plant response rating, Galium [1, 15]: 0 | Plant response rating, Galium [1, 16]: 0 | Galium plant response rating ([1]; 8 g ai/ha): 0 | Galium plant response rating ([1]; 16 g ai/ha): 0 | Plant response rating, Sunflower [2, 15]: 0 | Plant response rating, Sunflower [2, 16]: 0 | Sunflower plant response rating ([2]; 8 g ai/ha): 0 | Sunflower plant response rating ([2]; 16 g ai/ha): 0 | Ragweed plant response rating [3, 17]: 0 | Plant response rating, Ragweed [3, 18]: 0 | Plant response rating, Ragweed [3, 19]: 0 | Plant response rating, Ragweed [3, 20]: 0 | Plant response rating, Ragweed [3, 21]: 0 | Plant response rating, Ragweed [3, 22]: 0 | Ragweed plant response rating [3, 23]: 0 | Ragweed plant response rating [3, 24]: 0 | Oat, Wild plant response rating (wild oat (Avena fatua); [17]): 85 | Plant response rating, Oat, Wild (wild oat (Avena fatua); [18]): 85 | Plant response rating, Oat, Wild (wild oat (Avena fatua); [19]): 95 | Plant response rating, Oat, Wild (wild oat (Avena fatua); [20]): 98 | Plant response rating, Oat, Wild (wild oat (Avena fatua); [21]): 70 | Plant response rating, Oat, Wild (wild oat (Avena fatua); [22]): 80 | Oat, Wild plant response rating (wild oat (Avena fatua); [23]): 0 | Oat, Wild plant response rating (wild oat (Avena fatua); [24]): 60 | Foxtail, Giant plant response rating [4, 17]: 80 | Plant response rating, Foxtail, Giant [4, 18]: 95 | Plant response rating, Foxtail, Giant [4, 19]: 98 | Plant response rating, Foxtail, Giant [4, 20]: 100 | Plant response rating, Foxtail, Giant [4, 21]: 100 | Plant response rating, Foxtail, Giant [4, 22]: 100 | Foxtail, Giant plant response rating [4, 23]: 98 | Foxtail, Giant plant response rating [4, 24]: 98 | Johnsongrass plant response rating [5, 17]: 15 | Plant response rating, Johnsongrass [5, 18]: 65 | Plant response rating, Johnsongrass [5, 19]: 90 | Plant response rating, Johnsongrass [5, 20]: 100 | Plant response rating, Johnsongrass [5, 21]: 90 | Plant response rating, Johnsongrass [5, 22]: 100 | Johnsongrass plant response rating [5, 23]: 65 | Johnsongrass plant response rating [5, 24]: 90 | Goosegrass plant response rating [6, 17]: 65 | Plant response rating, Goosegrass [6, 18]: 80 | Plant response rating, Goosegrass [6, 19]: 85 | Plant response rating, Goosegrass [6, 20]: 90 | Plant response rating, Goosegrass [6, 21]: 98 | Plant response rating, Goosegrass [6, 22]: 100 | Goosegrass plant response rating [6, 23]: 0 | Goosegrass plant response rating [6, 24]: 0 | Lambsquarters plant response rating [7, 17]: 0 | Plant response rating, Lambsquarters [7, 18]: 0 | Plant response rating, Lambsquarters [7, 19]: 0 | Plant response rating, Lambsquarters [7, 20]: 0 | Plant response rating, Lambsquarters [7, 21]: 20 | Plant response rating, Lambsquarters [7, 22]: 65 | Lambsquarters plant response rating [7, 23]: 0 | Lambsquarters plant response rating [7, 24]: 0 | Wheat plant response rating [8, 17]: 30 | Plant response rating, Wheat [8, 18]: 45 | Plant response rating, Wheat [8, 19]: 90 | Plant response rating, Wheat [8, 20]: 90 | Plant response rating, Wheat [8, 21]: 40 | Plant response rating, Wheat [8, 22]: 50 | Wheat plant response rating [8, 24]: 15 | Nutsedge, Yellow plant response rating [9, 17]: 0 | Plant response rating, Nutsedge, Yellow [9, 18]: 0 | Plant response rating, Nutsedge, Yellow [9, 19]: 0 | Plant response rating, Nutsedge, Yellow [9, 20]: 0 | Plant response rating, Nutsedge, Yellow [9, 21]: 0 | Plant response rating, Nutsedge, Yellow [9, 22]: 0 | Nutsedge, Yellow plant response rating [9, 23]: 0 | Nutsedge, Yellow plant response rating [9, 24]: 0 | Cocklebur plant response rating ([10]; postemergence, 0-100 scale): 0 | Plant response rating, Cocklebur [10, 18]: 0 | Plant response rating, Cocklebur [10, 19]: 0 | Plant response rating, Cocklebur [10, 20]: 0 | Plant response rating, Cocklebur [10, 25]: 0 | Plant response rating, Cocklebur [10, 21]: 0 | Plant response rating, Cocklebur [10, 22]: 0 | Cocklebur plant response rating ([10]; Preemergence, scale 0 to 100): 0 | Crabgrass, Large plant response rating [11, 17]: 75 | Plant response rating, Crabgrass, Large [11, 18]: 95 | Plant response rating, Crabgrass, Large [11, 19]: 98 | Plant response rating, Crabgrass, Large [11, 20]: 100 | Plant response rating, Crabgrass, Large [11, 21]: 98 | Plant response rating, Crabgrass, Large [11, 22]: 100 | Crabgrass, Large plant response rating [11, 23]: 0 | Crabgrass, Large plant response rating [11, 24]: 0 | Blackgrass plant response rating ([12]; postemergence, 0-100 scale): 40 | Plant response rating, Blackgrass [12, 18]: 80 | Plant response rating, Blackgrass [12, 19]: 80 | Plant response rating, Blackgrass [12, 20]: 95 | Plant response rating, Blackgrass [12, 25]: 100 | Plant response rating, Blackgrass [12, 21]: 100 | Plant response rating, Blackgrass [12, 22]: 100 | Blackgrass plant response rating ([12]; Preemergence, scale 0 to 100): 40 | Windgrass plant response rating [13, 17]: 50 | Plant response rating, Windgrass ([13]; 16 g ai/ha, scale 0 to 100): 50 | Plant response rating, Windgrass ([13]; 31 g ai/ha, scale 0 to 100): 55 | Plant response rating, Windgrass ([13]; 62 g ai/ha, scale 0 to 100, 0 no effect, 100 complete control): 70 | Barley plant response rating [14, 17]: 0 | Plant response rating, Barley ([14]; 16 g ai/ha): 0 | Plant response rating, Barley ([14]; 31 g ai/ha): 0 | Plant response rating, Barley ([14]; 62 g ai/ha): 40
